Source: patent US7649012B2, “Compounds, pharmaceutical compositions containing same, and methods of use for same” (FASgen, Inc., priority 2002, dated 2010)
≈ marks a conversion by molar mass, not a printed value. Like-named read-outs stand apart in the source and are kept apart here.

Key:
[1] = test system: MCF-7 human breast cancer cells; assay: [14C]acetate incorporation into total lipids; type: cell-based; conditions: for IC50: Homo sapiens, MCF7, [14C]acetate incorporation into lipids; for 14C(IC50): [14C]acetate incorporation into lipids
Experimental: This assay measures the incorporation of [^14C]acetate into total lipids and is a measure of fatty acid synthesis pathway activity in vitro. It is utilized to measure inhibition of fatty acid synthesis in vitro.
MCF-7 human breast cancer cells cultured as above, are plated at 5×10^4 cells per well in 24-well plates. […] DMSO is added to triplicate wells for a vehicle control. C75 is run at 5 and 10 μg/ml in triplicate as positive controls. After 4 hours of incubation, 0.25 μCi of [^14C]acetate (10 μl volume) is added to each well.
After 2 hours of additional incubation, medium is aspirated from the wells and 800 μl of chloroform:methanol (2:1) and 700 μl of 4 mM MgCl2 is added to each well. Contents of each well are transferred to 1.5 Eppendorf tubes, and spun at full-speed for 2 minutes in a high-speed Eppendorf Microcentrifuge 5415D. After removal of the aqueous (upper) layer, an additional 700 μl of chloroform:methanol (2:1) and 500 μl of 4 mM MgCl2 are added to each tube and then centrifuged for 1 minutes as above. The aqueous layer is removed with a Pasteur pipette and discarded. An additional 400 μl of chloroform:methanol (2:1) and 200 μl of 4 mM MgCl2 are added to each tube, then centrifuged and aqueous layer is discarded. The lower (organic) phase is transferred into a scintillation vial and dried at 40° C. under N2 gas. Once dried, 3 ml of scintillant (APB #NBC5104) is added and vials are counted for ^14C. The Beckman Scintillation counter calculates the average cpm values for triplicates.
The IC50 for the compounds is defined as the concentration of drug leading to a 50% reduction in [^14C]acetate incorporation into lipids compared to controls. […] The average cpm values are computed by the Beckman scintillation counter (Model LS6500) for each compound concentration. Computation of linear regression, best-fit line, r^2, and 95% confidence intervals are calculated using Prism Version 3.0 (Graph Pad Software).

[2] = test system: Pseudomonas aeruginosa (ATCC # 27853); assay: Broth microdilution MIC; type: cell-based; conditions: for PSAE/MH(MIC): Mueller Hinton Broth; for PSAE/Tsoy(MIC): Trypticase Soy Broth
Procedure, shortened: (§1)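 Run in Mueller Hinton Broth and Trypticase Soy Broth, with inoculum at 0.5 McFarland diluted 1:10 and compounds in DMSO at 25 to 0.78 ug/ml (final well concentrations not given) in duplicate. OD600 read after 24 h at 37° C; MIC derived by linear regression.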

[3] = test system: Enterococcus faecalis (ATCC # 29212); assay: Broth microdilution MIC; type: cell-based; conditions: for MIC: Enterococcus faecalis, ATCC29212
Procedure, shortened: as §1

[4] = test system: MCF-7 human breast cancer cells; assay: Crystal violet cell growth assay; type: cell-based; conditions: MCF7, MCF-7, 72 hours, read-out: Cr. Violet(IC50)
Experimental: The crystal violet assay measure cell growth but not cytotoxicity. This assay employs crystal violet staining of fixed cells in 96-well plates with subsequent solubilization and measurement of OD490 on a spectrophotometer. The OD490 corresponds to cell growth per unit time measured. Cells are treated with the compounds of interest or vehicle controls and IC50 for each compound is computed.
To measure the cytotoxicity of specific compounds against cancer cells, 5×10^4 MCF-7 human breast cancer cells, obtained from the American Type Culture Collection are plated per well in 24 well plates in DMEM medium with 10% fetal bovine serum, penicillin, and streptomycin. Following overnight culture at 37° C. and 5% CO2, the compounds to be tested, dissolved in DMSO, are added to the wells in 1 μl volume at the following concentrations: 50, 40, 30, 20, and 10 μg/ml in triplicate. Additional concentrations are tested if required. 1 μl of DMSO is added to triplicate wells are the vehicle control. C75 is run at 10, and 5 μg/ml in triplicate as positive controls.
After 72 hours of incubation, cells are stained with 0.5 ml of Crystal Violet stain (0.5% in 25% methanol) in each well. After 10 minutes, wells are rinsed, air dried, and then solubilized with 0.5 ml 10% sodium dodecylsulfate with shaking for 2 hours.

[5] = Weight loss screen in Balb/C mice; type: in vivo; conditions: for change in vivo at 60 mg/kg / change in vivo at 30 mg/kg: Mus musculus, read-out: Weight Loss; for change in vivo at 60 mg/kg: ip, 60 mg/kg intraperitoneally
Experimental: Balb/C mice (Jackson Labs) are utilized for the initial weight loss screening. Animals are housed in temperature and 12 hour day/night cycle rooms and fed mouse chow and water ad lib. Three mice are utilized for each compound tested with vehicle controls in triplicate per experiment. For the experiments, mice are housed separately for each compound tested three mice to a cage. […] Mice are observed and weighed daily; average weights and standard errors are computed with Excel (Microsoft). The experiment continues until treated animals reach their pretreatment weights. […]

[6] = Mueller Hinton Broth, read-out: EF/MH(MIC)
[7] = Trypticase Soy Broth, read-out: EF/Tsoy(MIC)

Row | Compound | IC50 [1] | PSAE/MH(MIC) [2] | PSAE/Tsoy(MIC) [2] | MIC [3, 6] | IC50 [4] | MIC [3, 7] | further results
1 | CCCCCCCC[C@@]1(C)SC(=O)C=C1OCCCCCl (racemic) | 6.8 µg/mL (≈ 20.4 µM) | Neg | Neg | 64 µg/mL (≈ 192 µM) | 10.3 ± 0.3 µg/mL (≈ 30.9 µM) | – | EF/Tsoy(MIC) ([3]; Trypticase Soy Broth): Neg
2 | C=CCN(C)C(=O)COC1=CC(=O)SC1(C)CCCCCCCC (stereo not shown) | 25.7 µg/mL (≈ 72.7 µM) | – | – | – | 9 µg/mL (≈ 25.5 µM) | – | change in vivo at 60 mg/kg ([5]; 72 h, day3): 1.5%
3 | CCCCCCCCC1(C)SC(=O)C(C(C)O)=C1OC (stereo not shown) | 21.7 µg/mL (≈ 72.2 µM) | Neg | Neg | 77 µg/mL (≈ 256 µM) | 23.2 µg/mL (≈ 77.2 µM) | 25 µg/mL (≈ 83.2 µM) | change in vivo at 30 mg/kg ([5]; 48 h): 0.2%
4 | C=CCOC(=O)OC1=CC(=O)S[C@]1(C)CCCCCCCC (racemic) | 14.2 µg/mL (≈ 43.5 µM) | Neg | Neg | 79 µg/mL (≈ 242 µM) | 35.8 µg/mL (≈ 110 µM) | 75 µg/mL (≈ 230 µM) | change in vivo at 30 mg/kg ([5]; 48 h): 1%; change in vivo at 60 mg/kg ([5]; 48 h, day2): 6.2%
5 | CCCCCCCCC1(C)SC(=O)C=C1OC(=O)OCC (stereo not shown) | 14.5 ± 6.9 µg/mL (≈ 46.1 µM) | – | – | 86 µg/mL (≈ 273 µM) | 31.4 ± 5.7 µg/mL (≈ 99.9 µM) | 62 µg/mL (≈ 197 µM) | change in vivo at 30 mg/kg ([5]; 96 h, 30 mg/kg, day4): 1.3%; change in vivo at 60 mg/kg ([5]; 48 h, day2): 6.9%
6 | COC1=CC(=O)SC1(C)Cc1ccccc1 (stereo not shown) | – | Neg | Neg | 170 µg/mL (≈ 726 µM) | 20.9 µg/mL (≈ 89.2 µM) | 189 µg/mL (≈ 807 µM) | –
7 | CCCCCCCCC1(C)SC(=O)C(C)=C1O (stereo not shown) | 16.5 ± 5.7 µg/mL (≈ 64.3 µM) | Neg | Neg | 44 µg/mL (≈ 172 µM) | 29.4 ± 4.3 µg/mL (≈ 115 µM) | 105 µg/mL (≈ 409 µM) | change in vivo at 30 mg/kg ([5]; 24 h): 1%; change in vivo at 60 mg/kg ([5]; 24 h, day1): 0%
8 | CC/C=C/C=C/C1(C)SC(=O)C=C1O (stereo not shown) | 16.9 µg/mL (≈ 80.4 µM) | Neg | Neg | 186 µg/mL (≈ 884 µM) | > 50 µg/mL | – | EF/Tsoy(MIC) ([3]; Trypticase Soy Broth): Neg; change in vivo at 60 mg/kg ([5]; 120 h, day5): 3.2%
9 | CCCCCCCCC1(C)SC(=O)C=C1OC (stereo not shown) | 11 µg/mL (≈ 42.9 µM) | Neg | Neg | 72 µg/mL (≈ 281 µM) | 21.4 µg/mL (≈ 83.5 µM) | – | EF/Tsoy(MIC) ([3]; Trypticase Soy Broth): Neg; change in vivo at 60 mg/kg ([5]; 24 h, day1): 6.1%
10 | CCCCCCCC[C@@]1(C)SC(=O)C(C(=O)C(F)(F)F)=C1O (racemic) | 14.7 µg/mL (≈ 43.4 µM) | Neg | Neg | – | 45.3 µg/mL (≈ 134 µM) | – | –
11 | CCCCCCCC[C@@]1(C)SC(=O)C=C1OC(=O)CC (racemic) | 22.6 µg/mL (≈ 75.7 µM) | Neg | Neg | 102 µg/mL (≈ 342 µM) | 38.6 µg/mL (≈ 129 µM) | 147 µg/mL (≈ 493 µM) | –
12 | CCCCCCCC[C@@]1(C)SC(=O)C=C1OCC(=O)O | 13.8 ± 1.1 µg/mL (≈ 45.9 µM) | Neg | Neg | 77 µg/mL (≈ 256 µM) | 33.7 µg/mL (≈ 112 µM) | 164 µg/mL (≈ 546 µM) | –
13 | CC1(Cc2ccccc2)SC(=O)C=C1O (stereo not shown) | – | Neg | Neg | 128 µg/mL (≈ 581 µM) | > 50 µg/mL | – | 14C(IC50) [1]: Neg; EF/Tsoy(MIC) ([3]; Trypticase Soy Broth): Neg; change in vivo at 60 mg/kg ([5]; 48 h, day2): 1.6%
14 | C=CCOC1=CC(=O)S[C@]1(C)CCCCCC (racemic) | – | Neg | Neg | – | 8.1 µg/mL (≈ 31.8 µM) | 158 µg/mL (≈ 621 µM) | 14C(IC50) [1]: Neg; EF/MH(MIC) ([3]; Mueller Hinton Broth): Neg; Deaths in weight loss screen ([5]; 60 mg/kg, day2, three mice): 2 of 3 dead; change in vivo at 30 mg/kg ([5]; 48 h, 30 mg/kg, day2): 8.8%
